Converted amounts (≈) assume the structure as drawn.
Columns and labels:
USA300 wild-type = assay: MIC by microdilution (CLSI); format: cell-based, Staphylococcus aureus
Description: (§1) The present invention was described based on a series of experiments examining the biological basis for CA-MRSA strains versus HA-MRSA strains, focusing on the role of PBPs in CA-MRSA and generally in β-lactam resistance. Experiments were first performed using mutants of various PBPs. In-frame deletion mutants of the genes encoding PBP3 (MW1504) and PBP4 (MW0604), pbp3 and pbp4 respectively, were generated in the CA-MRSA strain MW2 and in HA-MRSA strain COL using the temperature-sensitive allelic replacement vector pMAD (Arnaud, M. et al. 2004. Appl. Environ. Microbiol. 70:6887-6891). PBP4 was also deleted in the HA-MRSA strains Mu50 and N315 and in the CA-MRSA strain USA300. […] Minimum inhibitory concentrations (MICs) were determined according to the Clinical and Laboratory Standards Institute and are a standard method for defining antibiotic efficacy against different organisms. Bacteria, grown to an OD650=1, were added to cation-supplemented Mueller Hinton broth (CSMHB) to achieve a final concentration of 5×10^5 CFU/ml.
(§2) Although PBP4, similar to PBP2A, binds with low affinity to many β-lactams, PBP4 binds cefoxitin, a semi-synthetic β-lactam derived from cephamycin C, with high affinity (Nair, S. R. and C. E. Cherubin. 1978. Antimicrob. Agents Chemother. 14:866-875).
(§3) Minimum inhibitory concentrations and minimum bactericidal concentrations (MIC and MBC, respectively) were determined for each isolate in triplicate by microdilution techniques with an inoculum of 5×10^5 CFU/ml according to the Clinical and Laboratory Standards Institute guidelines. Aliquots (5 μl) from clear wells were plated onto TSA drug-free plates for the determination of MBCs, followed by incubation at 37° C. for 24 and 48 hours. For the mutant strains, each one of the three clones was tested. MIC data were reported as median values from at least three independent experiments for each antibiotic. Also, strains containing pEPSA5-based plasmids were tested with and without xylose induction, but chloramphenicol was not added to avoid interference with beta-lactam resistance evaluation. […] The correct inocula were confirmed by plating serial dilutions on agar.

MW2 (USA400) wild-type = assay: MIC by microdilution (CLSI); format: cell-based, Staphylococcus aureus
Description: as §1, §2, §3

COL wild-type = assay: MIC by microdilution (CLSI); format: cell-based, Staphylococcus aureus
Description: as §1, §2, §3

MRSA252 HA-MRSA [1] = assay: Minimum bactericidal concentration (MBC); format: cell-based, Staphylococcus aureus; settings: for combination: MBC of oxacillin with ¼ MIC cefoxitin
Protocol: as §3

Mu50 HA-MRSA/VISA = assay: Minimum bactericidal concentration (MBC); format: cell-based, Staphylococcus aureus; settings: for combination: MBC of oxacillin with ¼ MIC cefoxitin
Protocol: as §3

COL HA-MRSA = assay: Minimum bactericidal concentration (MBC); format: cell-based, Staphylococcus aureus; settings: for combination: MBC of oxacillin with ¼ MIC cefoxitin
Protocol: as §3

Mu50 wild-type = assay: MIC by microdilution (CLSI); format: cell-based, Staphylococcus aureus
Description: as §1, with “Experiments” for “The present invention was described based on a series of experiments examining the biological basis for CA-MRSA strains versus HA-MRSA strains, focusing on the role of PBPs in CA-MRSA and generally in β-lactam resistance. Experiments”
as §3

MW2 ex Δpbp3/4 = assay: MIC by microdilution (CLSI); format: cell-based, Staphylococcus aureus
Description: as §1, with “Experiments” for “The present invention was described based on a series of experiments examining the biological basis for CA-MRSA strains versus HA-MRSA strains, focusing on the role of PBPs in CA-MRSA and generally in β-lactam resistance. Experiments”
as §3

MW2 Δpbp3 = assay: MIC by microdilution (CLSI); format: cell-based, Staphylococcus aureus; settings: Table 1; MW2 Δpbp3
Description: as §1, §3

MW2 Δpbp4::pbp4 = assay: MIC by microdilution (CLSI); format: cell-based, Staphylococcus aureus; settings: Table 1; MW2 Δpbp4::pbp4 (complemented)
Description: as §1, §3

MW2 Δpbp3/4 = assay: MIC by microdilution (CLSI); format: cell-based, Staphylococcus aureus; settings: Table 1, MW2 Δpbp3/4
Description: as §1, §3

N315 wild-type = assay: MIC by microdilution (CLSI); format: cell-based, Staphylococcus aureus
Description: as §1, §3

MW2 Δpbp4 = assay: MIC by microdilution (CLSI); format: cell-based, Staphylococcus aureus
Description: as §1, §3

USA300 Δpbp4 = assay: MIC by microdilution (CLSI); format: cell-based, Staphylococcus aureus
Description: as §1, §3

USA300 Δpbp4::pbp4 = assay: MIC by microdilution (CLSI); format: cell-based, Staphylococcus aureus; settings: Table 1; USA300 Δpbp4::pbp4 (complemented)
Description: as §1, §3

MW2 ex Δpbp4 = assay: MIC by microdilution (CLSI); format: cell-based, Staphylococcus aureus
Description: as §1, §3

MRSA252 HA-MRSA [2] = assay: MIC and synergy assay; format: cell-based, Staphylococcus aureus; settings: for combination: MIC of oxacillin with ¼ MIC cefoxitin
Protocol: as §3

MW2 ex Δpbp3 = assay: MIC by microdilution (CLSI); format: cell-based; settings: Staphylococcus aureus, read-out: MICs
Description: as §1, with “Experiments” for “The present invention was described based on a series of experiments examining the biological basis for CA-MRSA strains versus HA-MRSA strains, focusing on the role of PBPs in CA-MRSA and generally in β-lactam resistance. Experiments”
as §3

[3] = test system: MW2 ex (MW2 cured of plasmid pMW2); assay: MIC by microdilution (CLSI); format: cell-based; settings: Staphylococcus aureus, Table 1
Description: as §1, with “Experiments” for “The present invention was described based on a series of experiments examining the biological basis for CA-MRSA strains versus HA-MRSA strains, focusing on the role of PBPs in CA-MRSA and generally in β-lactam resistance. Experiments”
as §3

PBP4 = settings: cited from earlier work
[4] = Staphylococcus aureus, read-out: MICs

Structure (SMILES): Cc1onc(-c2ccccc2)c1C(=O)N[C@@H]1C(=O)N2[C@@H]1SC(C)(C)[C@@H]2C(=O)O [OX, oxacillin]
- MICs (USA300 wild-type; Table 1, USA300 wild-type): 64 µg/mL
- MICs 48 hr (USA300 wild-type; USA300, 48 hr, for combinations: MIC of oxacillin with ¼ MIC of second drug): 64 µg/mL
- MICs 48 hr (MW2 (USA400) wild-type; MW2, 48 hr, for combinations: MIC of oxacillin with ¼ MIC of second drug): 64 µg/mL
- MICs (MW2 (USA400) wild-type; Table 1, MW2 (USA400) wild-type): 64 µg/mL
- MICs 48 hr (COL wild-type; COL, 48 hr, for combination: MIC of oxacillin with ¼ MIC cefoxitin): 256 µg/mL
- MICs (COL wild-type; Table 1, COL wild-type): 256 µg/mL
- MBC 48 hr (MRSA252 HA-MRSA [1]): >256 µg/mL
- MBC 48 hr (Mu50 HA-MRSA/VISA): >256 µg/mL
- MBC 48 hr (COL HA-MRSA): >256 µg/mL
- MICs 48 hr (Mu50 wild-type; Mu50, 48 hr, for combination: MIC of oxacillin with ¼ MIC cefoxitin): 256 µg/mL
- MICs (Mu50 wild-type; Table 1, Mu50 wild-type): 256 µg/mL
- MICs (MW2 ex Δpbp3/4; Table 1, MW2 ex Δpbp3/4): 1 µg/mL
- MICs (MW2 Δpbp3): 64 µg/mL
- MICs (MW2 Δpbp4::pbp4): 64 µg/mL
- MICs (MW2 Δpbp3/4): 4 µg/mL
- MICs (MW2 Δpbp3/4; listed as oxacillin): 1 µg/mL
- MICs (N315 wild-type; Table 1, N315 wild-type): 256 µg/mL
- reduction in MIC on loss of pbp4 (MW2 Δpbp4; MW2 Δpbp4 versus MW2): 16 fold
- MICs (MW2 Δpbp4; Table 1, MW2 Δpbp4): 4 µg/mL
- MICs (MW2 Δpbp4; pbp4 mutant of MW2 with pbp2 expressed from inducible plasmid pEPSA5): 4 µg/mL
- MICs (USA300 Δpbp4; Table 1, USA300 Δpbp4): 4 µg/mL
- reduction in MIC on loss of pbp4 (USA300 Δpbp4; USA300 Δpbp4 versus USA300): 16 fold
- MICs (USA300 Δpbp4; pbp4 mutant of USA300 with pbp2 expressed from inducible plasmid pEPSA5): 4 µg/mL
- MICs (USA300 Δpbp4::pbp4): 64 µg/mL
- reduction in oxacillin MIC for the pbp4 mutant (MW2 ex Δpbp4; MW2 ex Δpbp4 versus MW2 ex): 64 fold
- MICs (MW2 ex Δpbp4; Table 1, MW2 ex Δpbp4): 2 µg/mL
- MICs 48 hr (MRSA252 HA-MRSA [2]): 256 µg/mL

Structure (SMILES): CO[C@@]1(NC(=O)Cc2cccs2)C(=O)N2C(C(=O)O)=C(COC(N)=O)CS[C@@H]21 [CX, cefoxitin]
- MIC (USA300 wild-type; Staphylococcus aureus, USA300, read-out: MICs): 64 µg/mL (≈ 150 µM)
- MIC (MW2 (USA400) wild-type; Staphylococcus aureus, USA400, read-out: MICs): 64 µg/mL (≈ 150 µM)
- MIC (COL wild-type; [4]): 128 µg/mL (≈ 299 µM)
- MIC (MW2 ex Δpbp3): 32 µg/mL (≈ 74.9 µM)
- MIC [3]: 16 µg/mL (≈ 37.4 µM)
- affinity for PBP4 (PBP4): high affinity
- MIC (Mu50 wild-type; [4]): 256 µg/mL (≈ 599 µM)
- MIC (MW2 ex Δpbp3/4; [4]): 32 µg/mL (≈ 74.9 µM)
- MIC (N315 wild-type; [4]): 64 µg/mL (≈ 150 µM)
- MIC (MW2 ex Δpbp4; [4]): 16 µg/mL (≈ 37.4 µM)
